Here are results for one compound from ChEMBL document CHEMBL3865849, “Development of N-(4-Phenoxyphenyl)benzenesulfonamide Derivatives as Novel Nonsteroidal Progesterone Receptor Antagonists” (ACS Med Chem Lett, 2016).

The source made the active and inactive calls. The rule behind the calls is not given here.

A word on the IC50: it is the concentration that inhibits the measured activity by half.

Experiment [1] has as its target T1, Progesterone receptor (Homo sapiens, UniProt P06401).
T1 sequence (P06401 whole entry): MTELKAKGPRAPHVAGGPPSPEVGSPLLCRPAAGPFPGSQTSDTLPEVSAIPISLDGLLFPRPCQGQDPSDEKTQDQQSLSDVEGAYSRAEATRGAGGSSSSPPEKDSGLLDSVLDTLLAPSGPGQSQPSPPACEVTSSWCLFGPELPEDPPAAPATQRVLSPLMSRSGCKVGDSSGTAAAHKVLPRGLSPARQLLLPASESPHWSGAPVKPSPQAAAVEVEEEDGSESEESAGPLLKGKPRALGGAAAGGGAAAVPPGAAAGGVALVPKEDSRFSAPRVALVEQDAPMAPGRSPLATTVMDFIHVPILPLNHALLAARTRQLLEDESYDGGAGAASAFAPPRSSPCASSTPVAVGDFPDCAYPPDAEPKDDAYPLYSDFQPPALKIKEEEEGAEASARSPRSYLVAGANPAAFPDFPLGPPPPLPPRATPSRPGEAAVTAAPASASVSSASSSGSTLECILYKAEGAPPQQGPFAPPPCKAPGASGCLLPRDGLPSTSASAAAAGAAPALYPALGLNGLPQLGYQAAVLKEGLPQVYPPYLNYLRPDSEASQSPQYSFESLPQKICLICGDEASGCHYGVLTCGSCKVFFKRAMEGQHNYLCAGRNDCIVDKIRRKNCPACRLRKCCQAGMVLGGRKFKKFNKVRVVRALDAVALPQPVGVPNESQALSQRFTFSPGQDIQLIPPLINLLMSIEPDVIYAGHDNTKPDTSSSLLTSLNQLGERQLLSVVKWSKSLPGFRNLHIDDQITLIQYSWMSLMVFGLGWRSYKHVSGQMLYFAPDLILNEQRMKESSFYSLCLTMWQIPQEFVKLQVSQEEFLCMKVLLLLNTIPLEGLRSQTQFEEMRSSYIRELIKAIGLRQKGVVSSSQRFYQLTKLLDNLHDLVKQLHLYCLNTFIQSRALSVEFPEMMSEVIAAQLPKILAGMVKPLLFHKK
In words: Antagonist activity at progesterone receptor in human T47D cells incubated for 24 hrs in presence of P4 by alkaline phosphatase assay. The format is cell-based.

Experiment [2] addresses T2, Progesterone receptor (Homo sapiens) (UniProt P06401).
T2 sequence (whole entry): T1 sequence (P06401 whole entry)
Nature of the experiment: Antagonist activity at progesterone receptor in human T47D cells assessed as suppression of P4-induced Na/K-ATPase-beta1 expression level at 1 and 10 uM measured after 16 hrs by Western blot analysis. The format is cell-based. (A western blot detects proteins with antibodies after separation by electrophoresis.)

Experiment [3] has as its target T1, Progesterone receptor. In words: Displacement of [1,2,6,7-3H]-PG from recombinant human GST-tagged PR-LBD (657 to 933 residues) expressed in baculovirus infected insect cells measured after 24 hrs by liquid scintillation counting method.
Experiment [4] concerns the target T3, Androgen receptor (Homo sapiens, UniProt P10275).
T3 sequence (P10275 whole entry): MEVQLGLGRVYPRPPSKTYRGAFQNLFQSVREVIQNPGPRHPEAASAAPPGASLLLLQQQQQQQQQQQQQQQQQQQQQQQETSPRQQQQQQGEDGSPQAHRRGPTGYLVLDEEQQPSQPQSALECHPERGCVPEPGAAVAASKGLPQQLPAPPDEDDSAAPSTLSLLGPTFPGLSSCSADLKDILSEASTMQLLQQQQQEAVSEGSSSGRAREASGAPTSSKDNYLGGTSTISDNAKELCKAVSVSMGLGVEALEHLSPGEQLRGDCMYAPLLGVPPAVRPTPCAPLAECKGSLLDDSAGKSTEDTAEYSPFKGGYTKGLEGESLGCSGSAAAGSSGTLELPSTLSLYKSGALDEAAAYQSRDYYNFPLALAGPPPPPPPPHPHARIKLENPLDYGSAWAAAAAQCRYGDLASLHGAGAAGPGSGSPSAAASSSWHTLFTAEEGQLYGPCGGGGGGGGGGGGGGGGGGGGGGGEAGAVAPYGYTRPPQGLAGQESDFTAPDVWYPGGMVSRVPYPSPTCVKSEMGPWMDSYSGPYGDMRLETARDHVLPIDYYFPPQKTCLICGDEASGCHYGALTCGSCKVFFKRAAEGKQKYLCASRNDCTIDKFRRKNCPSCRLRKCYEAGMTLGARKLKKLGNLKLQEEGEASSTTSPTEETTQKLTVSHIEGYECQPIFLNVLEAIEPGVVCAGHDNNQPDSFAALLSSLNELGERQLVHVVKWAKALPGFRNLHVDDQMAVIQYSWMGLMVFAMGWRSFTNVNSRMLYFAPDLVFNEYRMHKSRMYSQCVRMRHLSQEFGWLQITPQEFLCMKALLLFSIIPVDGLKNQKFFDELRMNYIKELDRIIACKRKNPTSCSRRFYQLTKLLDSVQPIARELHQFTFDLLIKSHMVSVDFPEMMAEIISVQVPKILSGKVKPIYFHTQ
Nature of the experiment: Antagonist activity at human AR expressed in HEK293 cells measured after 24 hrs by luciferase reporter gene assay. In kind it is cell-based. (In general: Reporter assays use an easily measured gene product as a stand-in for the process of interest.)

The target of experiment [5] is T4, Glucocorticoid receptor (Homo sapiens, UniProt P04150).
T4 sequence (P04150 whole entry): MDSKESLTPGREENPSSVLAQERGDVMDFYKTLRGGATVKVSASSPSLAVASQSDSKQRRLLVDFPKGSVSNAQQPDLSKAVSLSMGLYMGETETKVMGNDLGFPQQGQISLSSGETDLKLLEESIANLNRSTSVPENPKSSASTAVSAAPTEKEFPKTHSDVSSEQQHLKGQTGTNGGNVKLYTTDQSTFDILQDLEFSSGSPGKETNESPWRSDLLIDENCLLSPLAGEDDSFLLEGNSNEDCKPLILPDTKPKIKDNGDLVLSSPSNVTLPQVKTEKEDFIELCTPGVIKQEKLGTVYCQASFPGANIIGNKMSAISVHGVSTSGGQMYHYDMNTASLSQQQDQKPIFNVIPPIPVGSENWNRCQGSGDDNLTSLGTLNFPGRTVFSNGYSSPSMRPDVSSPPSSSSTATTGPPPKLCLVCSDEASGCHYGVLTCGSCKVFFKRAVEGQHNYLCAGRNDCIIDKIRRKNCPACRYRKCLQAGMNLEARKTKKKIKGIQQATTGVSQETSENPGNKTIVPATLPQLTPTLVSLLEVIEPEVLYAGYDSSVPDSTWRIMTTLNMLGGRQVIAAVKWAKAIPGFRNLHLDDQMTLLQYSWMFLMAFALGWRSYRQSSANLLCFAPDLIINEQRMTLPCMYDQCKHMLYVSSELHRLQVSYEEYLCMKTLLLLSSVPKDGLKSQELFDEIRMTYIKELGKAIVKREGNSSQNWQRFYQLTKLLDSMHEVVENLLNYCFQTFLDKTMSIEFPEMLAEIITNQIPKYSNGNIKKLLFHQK
In words: Antagonist activity at human glucocorticoid receptor-alpha expressed in HEK293 cells measured after 24 hrs by luciferase reporter gene assay. In kind it is cell-based.

In experiment [6] the target is T5, Estrogen receptor (Homo sapiens, UniProt P03372).
T5 sequence (P03372 whole entry): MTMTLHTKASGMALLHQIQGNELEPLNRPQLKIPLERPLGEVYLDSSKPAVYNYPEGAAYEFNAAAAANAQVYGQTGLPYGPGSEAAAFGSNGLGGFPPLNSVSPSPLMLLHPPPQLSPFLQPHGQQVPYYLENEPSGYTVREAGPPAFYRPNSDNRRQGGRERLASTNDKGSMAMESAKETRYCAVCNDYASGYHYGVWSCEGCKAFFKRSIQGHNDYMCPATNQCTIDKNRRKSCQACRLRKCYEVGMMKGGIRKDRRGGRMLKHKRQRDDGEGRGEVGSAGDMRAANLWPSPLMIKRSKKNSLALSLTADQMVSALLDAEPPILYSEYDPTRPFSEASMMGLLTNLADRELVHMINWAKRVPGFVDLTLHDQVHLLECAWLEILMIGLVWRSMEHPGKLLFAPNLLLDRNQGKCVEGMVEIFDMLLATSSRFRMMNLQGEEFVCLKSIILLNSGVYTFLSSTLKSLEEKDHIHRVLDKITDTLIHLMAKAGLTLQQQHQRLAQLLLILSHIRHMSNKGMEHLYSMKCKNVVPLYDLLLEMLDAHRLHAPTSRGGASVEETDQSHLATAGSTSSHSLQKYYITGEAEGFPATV
Nature of the experiment: Antagonist activity at human Gal4-tagged estrogen receptor-alpha LBD expressed in HEK293 cells measured after 24 hrs by luciferase reporter gene assay. The format is cell-based.

Experiment [7] addresses Estrogen receptor beta (Homo sapiens, UniProt Q92731). Nature of the experiment: Antagonist activity at human Gal4-tagged estrogen receptor-beta LBD expressed in HEK293 cells measured after 24 hrs by luciferase reporter gene assay. The format is cell-based.

Chain of Estrogen receptor beta (Q92731 whole entry, the tested form may be a part): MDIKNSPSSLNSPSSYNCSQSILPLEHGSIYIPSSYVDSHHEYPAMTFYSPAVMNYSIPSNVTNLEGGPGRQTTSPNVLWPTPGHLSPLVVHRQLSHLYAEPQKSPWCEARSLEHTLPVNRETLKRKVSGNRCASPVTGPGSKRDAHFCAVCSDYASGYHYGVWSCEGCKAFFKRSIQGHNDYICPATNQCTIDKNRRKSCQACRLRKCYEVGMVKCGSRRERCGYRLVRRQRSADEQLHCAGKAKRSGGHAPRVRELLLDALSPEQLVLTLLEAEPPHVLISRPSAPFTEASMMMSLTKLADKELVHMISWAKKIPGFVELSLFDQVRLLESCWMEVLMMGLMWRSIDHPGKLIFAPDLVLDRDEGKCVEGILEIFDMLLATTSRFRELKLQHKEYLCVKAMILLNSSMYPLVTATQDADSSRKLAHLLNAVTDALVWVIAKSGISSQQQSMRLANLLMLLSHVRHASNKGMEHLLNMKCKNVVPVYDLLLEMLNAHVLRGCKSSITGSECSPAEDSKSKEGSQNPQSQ

Consider `O=S(=O)(Nc1ccc(Oc2ccccc2)cc1)c1cccc(C(F)(F)F)c1`, for which the IC50 in experiment [1] was 0.033 µM; in experiment [3], 0.04 µM; in experiment [4] it was 5.3 µM; in experiment [5] it was 12 µM; in experiment [6], more than 30 µM; in experiment [7], 23 µM. Further, the inhibition result in experiment [2] was “Active”.
